Measured values: patent US6960590B2, “Orally active salts with tyrosine kinase activity” (Merck & Co. Inc., priority 2000, dated 2005)
Counter-ions that a name gives are not always drawn.

Tests used:
Type in all cases: physicochemical
[1] = Measurement of salt solubility: salts of 1-11 formed in situ and suspended in water, HPLC (UV-Vis); conditions: for Solubility: free base plus 1.05-1.1 molar equivalence of acid, suspended in water for several days, method overestimates the solubility; for pH: pH in equilibrium with the solid phase of the salt suspended in water, most likely lower than pH of the salt in water
Description: The solid free base was treated with a concentrated solution of the appropriate acid (1.05-1.1 molar equivalence) and suspended in water for several days. The pH and concentration of the compound in equilibrium with the solid phase was measured by HPLC (UV-Vis detection). This method overestimates the solubility of the salt due to the 5-10% excess of the acid that is added in the preparation of the salts. For the same reason, the pH's that are obtained are most likely lower than the pH of the salt in water.

[2] = Solubility of salts of 4-9 prepared in situ (pH and concentration by HPLC); conditions: for Solubility: free base plus 1.05 mole equivalents of acid, suspended in 100 μL of water, rotated overnight, centrifuged; for pH: pH of the liquid residue of the aqueous suspension
Text: Two forms of the mesylate salt were made: Salt 4-9A above and Salt 4-9B below.

[3] = Solubility of free base 1-11 at room temperature in 0.05M aqueous buffers, water and organic solvents (HPLC)
Description: The solubility of 1-11 at room temperature was determined in 0.05M aqueous buffers, water and several organic solvents.

[4] = Solubility of isolated crystalline salts of 1-11 in water and organic solvents; conditions: for solubility at 7 days: thermodynamic from solid, RT for 7 days
Description: The amorphous mesylate salt was recrystallized from 50:50 Ethanol:THF to give a crystalline powder (Salt 1-11A). The X-ray powder diffraction pattern (XRPD) of the recrystallized mesylate salt 1-11A (FIG. 2) is indicative of crystalline material with multiple diffraction peaks between 5° and 30° 2-theta.
A second batch of crystalline mesylate salt (Salt 1-11B) was obtained by the following procdeure. To a stirred suspension of 1-11 (4.026 g, 9.22 mmol) in MeOH was slowly added at room temperature (RT) one equivalent of a 0.3M solution of methanesulfonic acid (30.73 mL). After all the solid had dissolved, the mixture was filtered into a flask and concentrated under reduced pressure while cooled to about 10° C. The resulting solid was suspended with 200 mL of ethylacetate, filtered, and dried to afford the mesylate salt. […] This crystalline form is different by XRPD than the one recrystallized from the amorphous salt in EtOH/THF (Salt 1-11A).
HCl salt 1-11D is also crystalline as witnessed by the X-ray powder diffraction pattern of the material, having multiple diffraction peaks between 5° and 30° 2-theta. […] (rate of 10° C./min). The compound is birefringent under plane polarized light. It is needle-shaped particles of approximately 5-25 micron. The solubility of salt 1-11D was measured in water and various organic solvents. Table VI below summarizes the solubility of the 1-11D suspended in various solvents for 7 days at room temperature.

SMILES: CS(=O)(=O)N1CCN(Cc2ccc3[nH]c(-c4cc5ccccc5[nH]c4=O)cc3c2)CC1 [Acetate salt of 1-11, 3-[5-(4-Methanesulfonyl-piperazin-1-ylmethyl)-1H-indol-2-yl]-1H-quinolin-2-one]
- Solubility [1]: 0.091 mg/mL
- pH [1]: 3.3

SMILES: CS(=O)(=O)N1CCN(Cc2ccc3[nH]c(-c4cc5ccccc5[nH]c4=O)cc3c2)CC1 [Besylate salt of 1-11, 3-[5-(4-Methanesulfonyl-piperazin-1-ylmethyl)-1H-indol-2-yl]-1H-quinolin-2-one]
- Solubility [1]: 0.0038 mg/mL
- pH [1]: 2.4

SMILES: CS(=O)(=O)N1CCN(Cc2ccc3[nH]c(-c4cc5ccccc5[nH]c4=O)cc3c2)CC1 [Citrate salt of 1-11, 3-[5-(4-Methanesulfonyl-piperazin-1-ylmethyl)-1H-indol-2-yl]-1H-quinolin-2-one]
- Solubility [1]: 0.11 mg/mL

SMILES: COCCN(C)CCOc1ccc2[nH]c(-c3cc4ccccc4[nH]c3=O)cc2c1 [Citrate salt of 4-9, 3-(5-{2-[(2-methoxyethyl)(methyl)amino]ethoxy}-1H-indol-2-yl)-2(1H)-quinolinone]
- Solubility [2]: 19.8 mg/mL
- pH [2]: 3.33

SMILES: CS(=O)(=O)N1CCN(Cc2ccc3[nH]c(-c4cc5ccccc5[nH]c4=O)cc3c2)CC1 [HBr salt of 1-11, 3-[5-(4-Methanesulfonyl-piperazin-1-ylmethyl)-1H-indol-2-yl]-1H-quinolin-2-one]
- Solubility [1]: 0.20 mg/mL
- pH [1]: 2.9

SMILES: CS(=O)(=O)N1CCN(Cc2ccc3[nH]c(-c4cc5ccccc5[nH]c4=O)cc3c2)CC1 [HCl salt of 1-11, 3-[5-(4-Methanesulfonyl-piperazin-1-ylmethyl)-1H-indol-2-yl]-1H-quinolin-2-one]
- Solubility [1]: 0.43 mg/mL
- pH [1]: 2.3

SMILES: CS(=O)(=O)N1CCN(Cc2ccc3[nH]c(-c4cc5ccccc5[nH]c4=O)cc3c2)CC1 [Maleate salt of 1-11, 3-[5-(4-Methanesulfonyl-piperazin-1-ylmethyl)-1H-indol-2-yl]-1H-quinolin-2-one]
- Solubility [1]: 0.16 mg/mL
- pH [1]: 2.5

SMILES: COCCN(C)CCOc1ccc2[nH]c(-c3cc4ccccc4[nH]c3=O)cc2c1 [Mesylate 4-9B, 3-(5-{2-[(2-methoxyethyl)(methyl)amino]ethoxy}-1H-indol-2-yl)-2(1H)-quinolinone]
- Solubility [2]: 22.0 mg/mL

SMILES: CS(=O)(=O)N1CCN(Cc2ccc3[nH]c(-c4cc5ccccc5[nH]c4=O)cc3c2)CC1 [Mesylate salt of 1-11, 3-[5-(4-Methanesulfonyl-piperazin-1-ylmethyl)-1H-indol-2-yl]-1H-quinolin-2-one]
- Solubility [1]: 0.58 mg/mL
- pH [1]: 2.3

SMILES: CS(=O)(=O)N1CCN(Cc2ccc3[nH]c(-c4cc5ccccc5[nH]c4=O)cc3c2)CC1 [Salt 1-11, 3-[5-(4-Methanesulfonyl-piperazin-1-ylmethyl)-1H-indol-2-yl]-1H-quinolin-2-one]
- Solubility ([3]; 0.05M Carbonate, pH final 10.09, room temperature): 0.079 mg/mL
- Solubility ([3]; 0.05M Citrate, pH final 4.15, room temperature): 0.073 mg/mL
- Solubility ([3]; 0.05M Citrate, pH final 5.07, room temperature): 0.070 mg/mL
- Solubility ([3]; 0.05M Phosphate, pH final 7.93, room temperature): 0.074 mg/mL
- Solubility ([3]; 0.05M Phosphate, pH final 8.86, room temperature): 0.073 mg/mL

SMILES: CS(=O)(=O)N1CCN(Cc2ccc3[nH]c(-c4cc5ccccc5[nH]c4=O)cc3c2)CC1 [Salt 1-11B, 3-[5-(4-Methanesulfonyl-piperazin-1-ylmethyl)-1H-indol-2-yl]-1H-quinolin-2-one]
- Solubility ([4]; acetonitrile, organic solvent or mixture): 0.03 mg/mL

SMILES: CS(=O)(=O)N1CCN(Cc2ccc3[nH]c(-c4cc5ccccc5[nH]c4=O)cc3c2)CC1 [Salt 1-11D, 3-[5-(4-Methanesulfonyl-piperazin-1-ylmethyl)-1H-indol-2-yl]-1H-quinolin-2-one]
- solubility at 7 days ([4]; aqueous ETOH, aqueous with cosolvent or surfactant or cyclodextrin): 4.34 mg/mL
- solubility at 7 days ([4]; aqueous IPA, aqueous with cosolvent or surfactant or cyclodextrin): 3.99 mg/mL
- solubility at 7 days ([4]; ethanol, organic solvent or mixture): 0.13 mg/mL
- solubility at 7 days ([4]; isopropanol, organic solvent or mixture): 0.057 mg/mL
- solubility at 7 days ([4]; water): 0.62 mg/mL

SMILES: CS(=O)(=O)N1CCN(Cc2ccc3[nH]c(-c4cc5ccccc5[nH]c4=O)cc3c2)CC1 [Sulfate salt of 1-11, 3-[5-(4-Methanesulfonyl-piperazin-1-ylmethyl)-1H-indol-2-yl]-1H-quinolin-2-one]
- Solubility [1]: 0.13 mg/mL
- pH [1]: 1.5

SMILES: COCCN(C)CCOc1ccc2[nH]c(-c3cc4ccccc4[nH]c3=O)cc2c1 [Sulfate salt of 4-9, 3-(5-{2-[(2-methoxyethyl)(methyl)amino]ethoxy}-1H-indol-2-yl)-2(1H)-quinolinone]
- pH [2]: 1.40

SMILES: COCCN(C)CCOc1ccc2[nH]c(-c3cc4ccccc4[nH]c3=O)cc2c1 [Tartrate salt of 4-9, 3-(5-{2-[(2-methoxyethyl)(methyl)amino]ethoxy}-1H-indol-2-yl)-2(1H)-quinolinone]
- pH [2]: 3.23
